# Test results as given in patent US9962350B2, “Agent for improving normal development rate of fertilized eggs” (SBI Pharmaceuticals Co., Ltd., priority 2014, dated 2018).
# Tested on: C57BL/6J in vitro fertilized eggs
# Test: Low-temperature in vitro culture of in vitro fertilization-derived fertilized eggs in KSOM or mWM with ALA; embryo development
# Type: cell-based, mouse
# Description: 5 U (units) of equine chorionic gonadotropin (serum gonadotropin) (ASKA Pharmaceutical Co., Ltd.) were intraperitoneally administered to each female mouse of the C57BL/6J lineage (3.9 weeks old to 4.0 weeks old). […], 5 U (units) of gonadotropin (human chorionic gonadotropin) (ASKA Pharmaceutical Co., Ltd.) were intraperitoneally administered thereto for controlled ovarian hyperstimulation. 15 hours after the administration of gonadotropin, the oviducts were recovered by opening the abdomens. In mineral oil, the ampullae of the oviducts were incised with a dissecting needle, and the ova were recovered into a drop of mHTF medium (ARK Resource Co., Ltd.). Sperms were recovered from the cauda epididymides of C57BL/6J male mice and cultured in mHTF medium at 37° C. for 40 minutes to 1 hour under 5% CO2 conditions for capacitation. 2 μl to 4 μl of the mHTF medium containing the sperms was added to the medium drop containing the recovered ova for insemination, and cultured at 37° C. under 5% CO2 conditions. 4 hours to 6 hours after the insemination, the fertilized eggs were washed with KSOM (ARK Resource Co., Ltd.) or mWM (ARK Resource Co., Ltd.) to remove cumulus cells and sperms. The fertilized eggs were temporarily cultured in KSOM or mWM in an incubator of 37° C. and 5% CO2 until all of the fertilized eggs were recovered.
# 25 of the fertilized eggs per drop were transferred to a drop (covered with mineral oil (Sigma-Aldrich Corp.)) consisting of 100 μl of ALA-unsupplemented or ALA-supplemented (1 μM or 3 μM) medium (KSOM or mWM). Subsequently, the fertilized eggs were cultured under three conditions: a condition of 37° C. and 5% CO2, a condition of 35° C. and 5% CO2, and a condition of 35.5° C. and 5% CO2. The number of 2-cell eggs was counted 24 hours after the ovum recovery, and the number of blastocysts was counted 96 hours thereafter. Since the development of fertilized eggs obtained by in vitro fertilization is slightly slow, the number of blastocysts was also counted 120 hours after the ovum recovery. The development rate of embryos at each culture time was calculated on the basis of the number of 2-cell embryos 24 hours postfertilization defined as 100%. The results about KSOM are shown in Tables 14 and 15 and FIGS. 9 and 11. The results about mWM are shown in Tables 16 and 17 and FIGS. 10, 12, and 13.
smiles,measurement,setting,value
"NCC(=O)CCC(=O)O [ALA, 5-aminolevulinic acid]",The number of developed embryos in KSOM,"35° C., 1 μM ALA, 24 hr",61
same,The number of developed embryos in KSOM,"35° C., 1 μM ALA, 48 hr",27
same,development rate with the number of 2-cell embryos 24 hours postfertilization in KSOM defined as 100%,"35° C., 1 μM ALA, 48 hr",44%
same,The number of developed embryos in KSOM,"35° C., 1 μM ALA, 72 hr",26
same,development rate with the number of 2-cell embryos 24 hours postfertilization in KSOM defined as 100%,"35° C., 1 μM ALA, 72 hr",43%
same,The number of developed embryos in KSOM,"35° C., 1 μM ALA, 120 hr",22
same,development rate with the number of 2-cell embryos 24 hours postfertilization in KSOM defined as 100%,"35° C., 1 μM ALA, 120 hr (blastocysts)",36%
same,The number of developed embryos in mWM,"35° C., 1 μM ALA, 24 hr",51
same,The number of developed embryos in mWM,"35° C., 1 μM ALA, 48 hr",55
same,development rate with the number of 2-cell embryos 24 hours postfertilization in mWM defined as 100%,"35° C., 1 μM ALA, 48 hr",108%
same,The number of developed embryos in mWM,"35° C., 1 μM ALA, 72 hr",46
same,development rate with the number of 2-cell embryos 24 hours postfertilization in mWM defined as 100%,"35° C., 1 μM ALA, 72 hr",90%
same,The number of developed embryos in mWM,"35° C., 1 μM ALA, 96 hr",29
same,development rate with the number of 2-cell embryos 24 hours postfertilization in mWM defined as 100%,"35° C., 1 μM ALA, 96 hr (blastocysts)",53%
same,The number of developed embryos in KSOM,"35° C., 3 μM ALA, 24 hr",60
same,The number of developed embryos in KSOM,"35° C., 3 μM ALA, 48 hr",29
same,development rate with the number of 2-cell embryos 24 hours postfertilization in KSOM defined as 100%,"35° C., 3 μM ALA, 48 hr",48%
same,The number of developed embryos in KSOM,"35° C., 3 μM ALA, 72 hr",27
same,development rate with the number of 2-cell embryos 24 hours postfertilization in KSOM defined as 100%,"35° C., 3 μM ALA, 72 hr",45%
same,The number of developed embryos in KSOM,"35° C., 3 μM ALA, 120 hr",16
same,development rate with the number of 2-cell embryos 24 hours postfertilization in KSOM defined as 100%,"35° C., 3 μM ALA, 120 hr (blastocysts)",27%
same,The number of developed embryos in mWM,"35° C., 3 μM ALA, 24 hr",52
same,The number of developed embryos in mWM,"35° C., 3 μM ALA, 48 hr",44
same,development rate with the number of 2-cell embryos 24 hours postfertilization in mWM defined as 100%,"35° C., 3 μM ALA, 48 hr",85%
same,The number of developed embryos in mWM,"35° C., 3 μM ALA, 72 hr",27
same,development rate with the number of 2-cell embryos 24 hours postfertilization in mWM defined as 100%,"35° C., 3 μM ALA, 72 hr",52%
same,The number of developed embryos in mWM,"35° C., 3 μM ALA, 96 hr",20
same,development rate with the number of 2-cell embryos 24 hours postfertilization in mWM defined as 100%,"35° C., 3 μM ALA, 96 hr (blastocysts)",38%
same,The number of developed embryos in mWM,"35.5° C., 1 μM ALA, 24 hr",60
same,The number of developed embryos in mWM,"35.5° C., 1 μM ALA, 48 hr",60
same,development rate with the number of 2-cell embryos 24 hours postfertilization in mWM defined as 100%,"35.5° C., 1 μM ALA, 48 hr",100%
same,The number of developed embryos in mWM,"35.5° C., 1 μM ALA, 72 hr",49
same,development rate with the number of 2-cell embryos 24 hours postfertilization in mWM defined as 100%,"35.5° C., 1 μM ALA, 72 hr",82%
same,The number of developed embryos in mWM,"35.5° C., 1 μM ALA, 96 hr",42
same,development rate with the number of 2-cell embryos 24 hours postfertilization in mWM defined as 100%,"35.5° C., 1 μM ALA, 96 hr (blastocysts)",70%
same,The number of developed embryos in mWM,"35.5° C., 3 μM ALA, 24 hr",52
same,The number of developed embryos in mWM,"35.5° C., 3 μM ALA, 48 hr",52
same,development rate with the number of 2-cell embryos 24 hours postfertilization in mWM defined as 100%,"35.5° C., 3 μM ALA, 48 hr",100%
same,The number of developed embryos in mWM,"35.5° C., 3 μM ALA, 72 hr",46
same,development rate with the number of 2-cell embryos 24 hours postfertilization in mWM defined as 100%,"35.5° C., 3 μM ALA, 72 hr",88%
same,The number of developed embryos in mWM,"35.5° C., 3 μM ALA, 96 hr",39
same,development rate with the number of 2-cell embryos 24 hours postfertilization in mWM defined as 100%,"35.5° C., 3 μM ALA, 96 hr (blastocysts)",75%
